The subject of experiment [1] is neuraminidase site of oseltamivir-resistant virus (mutant type). On the set-up: species or system influenza virus.
Experiment [2] has as its system neuraminidase (NA) of Influenza A/Korea/2785/2009 (H275Y mutation). Format: biochemical, Influenza A virus.
The test system of experiment [3] is virus showing oseltamivir resistance due to the H275Y mutation. In kind it is binding, influenza virus.

As to `CCC(CC)O[C@@H]1C=C(C(=O)OCCCCCCS)C[C@H](N)[C@H]1NC(C)=O` [oseltamivir hexylthiol], in experiment [1], the “affinity for mutant type relative to wild type” value is “about 250 fold”. For the same compound, in experiment [2], the “inhibition of NA activity of mutant-type virus compared with wild-type virus” value was “inhibited the NA activity of the mutant-type virus (H275Y mutation) more significantly than the NA activity of the wild-type virus”. Further, in experiment [3], the “affinity for H275Y oseltamivir-resistant virus relative to oseltamivir sensitive virus” value was “about 1000 fold”.

Take `CCC(CC)O[C@@H]1C=C(C(=O)OCCCCCCN)C[C@H](N)[C@H]1NC(C)=O` [oseltamivir hexylamine]: the “inhibition of NA activity of mutant-type virus compared with wild-type virus” value in experiment [2] is “inhibited the NA activity of the mutant-type virus (H275Y mutation) more significantly than the NA activity of the wild-type virus”. In experiment [3], the “affinity for H275Y oseltamivir-resistant virus relative to oseltamivir sensitive virus” value is on record as “about 1000 fold”.

The record behind these values is patent publication US10336693B2 (priority 2015, dated 2019).
